Reference: patent US20230172940A1, “METHODS OF EXTENDING LIFESPAN BY ADMINISTERING FERROPTOSIS INHIBITORS” (COLLABORATIVE MEDICINAL DEVELOPMENT, LLC, priority 2020, published 2023)
Counter-ions that a name gives are not always drawn.

Experiments:
Format in all cases: in vivo, Caenorhabditis elegans
[1] = system: dead cells within live C. elegans; test: Visualization of cell death with propidium iodide; settings: for cell death (propidium iodide), preceding organismal death: aged cohorts or young animals treated with DEM, 4-day old and 6 and 8 day old adults; for cell death (animals with any dead cells): at 6 and 8 days of age
Method: The red-fluorescent propidium iodide (PI)^o was used to visualize dead cells within live C. elegans after DEM treatment and during aging. Populations were incubated for 24 h at 25° C. with PI (a 10 μL volume of 0.25 mg/mL solution added to the bacterial lawn on 50 mm NGM plates) prior to the described age or with concurrent exposure to 10 mM DEM (as described above) and PI. For aging experiments^o animals were visualized at Day 6 and Day 8. Cohorts of live animals (i.e. showing spontaneous or touch-provoked movement) were isolated and mounted under glass coverslips on 2% agarose pads without anesthetic. Imaging were captures with on a Leica DMI3000B inverted microscope^o DsRed filter set and a DFC 3000G digital.
Differences between the proportion of live animals with fluorescently labelled nuclei in control versus Lip-1 and SIH treatment, either aged or exposed to DEM, were compared using a z-test.

[2] = system: C. elegans strain TJ1060; test: Glutathione depletion: survival after diethyl maleate (DEM) exposure; settings: for DEM toxicity (survival): 4-day old worms, 200 μM Lip-1 or 250 μM SIH from late L4
Method: Diethyl maleate (DEM; Sigma-Aldrich) was added to neat DMSO and added to molten NGM at 55° C. to a final concentration of 5^o 10^o 15 or 20 mM DEM and 0.5% v/v DMSO. Plates were seeded with OP50 and used within 24 hours. As above^o data was collected at 25 (±1) ° C. using the temperature sensitive-sterile strain TJ1060. A synchronous population was obtained by transferring egg-laying adults to fresh plates at 16° C. for 2-3 hours. The adults were removed and the plates with eggs then transferred to 25° C. to ensure sterility. After 48 hours at 25° C.^o when worms were at the late L4/young adult stage^o 25-35 nematodes were transferred to fresh plates containing either vehicle control^o 250 μM SIH^o or 200 μM Lip-1. Worms were aged at 25° C. for a further 4 days and then transferred to DEM plates. Survival^o determined by touch-provoked movement^o was scored at 24 and 48 hours after exposure to DEM.
Aging studies were also undertaken to determine changes with age of both survival after DEM exposure and basal glutathione levels. Initial populations were obtained as describe above^o with worms aged on standard NGA plates. Note that here we refer to the age of adults as determined by the number of days following the last larval molt and therefore reflects the number of days of adulthood^o not the time since egg.
For survival with increasing DEM dose response and protection by compounds (Lip-1 and SIH), data was plotted as fraction of animal alive with upper and lower 95% confidence interval, using the Wilson ‘score’ method using asymptotic variance and fitted with a sigmoidal curve (Prism). Pairwise comparisons of treated groups versus control at each concentration of DEM was determined using the N-1 chi-squared test.

[3] = system: total glutathione; test: Quantification of total glutathione; settings: for glutathione depletion induced by DEM: Day 4 animals; for age-dependent decrease in glutathione: treated from L4, assayed on Day 4 of adult life
Method: Measurement of total glutathione was based on established protocols and is based on a kinetic spectrophotometric assay using the reaction between GSH and 5^o5′-dithio-bis (2-nitrobenzoic acid) (DTNB) measured at 412 nm (Caito and Aschner^o 2015; Rahman et al.^o 2006). All reagents were freshly prepared prior to the assay and for each estimate 50 adults were collected in 200 μL of S-basal (Brenner^o 1974) in 1.7 ml microfuge tubes. Animals were washed twice in S-basal^o pelleted via centrifugation and total volume reduced to 20 μL. A 50 μL aliquot of Extraction Buffer was added then the samples were frozen in Liquid N2 and store at −80° C. until required. Extraction buffer consisted of 6 mg/mL 5-sulfosalicylic acid dehydrate^o 0.1% v/v Triton X-100 and Complete^o EDTA-free Proteinase inhibitor cocktail (Roche) in KPE buffer (0.1 M potassium phosphate buffer and 5 mM EDTA at pH 7.5).
Samples were homogenized with a Bioruptor Next Gen (Diagenode) bath sonicator^o set on HIGH and cooled to 4° C.^o using 10 cycles of 10 seconds ON and 10 seconds OFF. Supernatant was collected following a 14K×g spin at 4° C. Assays were performed in 96 well microplates (clear polystyrene^o flat-bottomed^o Greiner bio-one)^o in a total volume of 200 μL per well. To each well was added 50 μL of lysate supernatant^o 50 μL of milli-Q H2O and then 100 μL of GA buffer (NADPH 400 μM^o glutathione reductase 1 U/mL and 0.3 mM DTNB in KPE buffer diluent). Reactions were incubated for 1-2 min at room temperature and then absorbance measured at 412 nm for 10 min with 1 min interval using a Powerwave plate spectrophotometer (BioTek). The rate of change in absorbance per minute is linearly proportional to the total concentration of GSH. Total GSH in the samples was interpolated from using linear regression from a standard curve of known GSH concentrations (0 to 1 μM) run in tandem. In parallel^o the concentration of total protein per sample was also determined by a Bicinchoninic acid (BCA) assay (Pierce) using the manufacturers protocol. Total GSH estimates were then normalized for protein load thous accounting for any size differences between populations. Within experiment results are presented as relative glutathione levels^o where results are normalized to the mean of the starting population.

[4] = system: C. elegans; test: Body size analysis
Method: […] The treatment plates included NGA with 0.5% (v/v) DMSO (vehicle control, Ctl), 250 μM SIH, or 200 μM Lip-1 (as described above).
Cohorts of approximately 100 animals were transferred into a 1.5 ml centrifuge tube containing 400 μL S-basal. Following a brief centrifugation excess S-basal was removed leaving the animals suspended in 50 μL. Animals were euthanized and straightened by a 15 second exposure to 60° C. (using a heated water bath). Samples were then mounted between glass slides and a cover slip and immediately imaged. Micrographs were collected using a Leica M80 stereomicroscope and Leica DFC290 HD 3 MP) digital camera. Pixel sizes were defined using a calibrated 25 μm grid slide (Microbrightfield, Inc). Size and shape metrics were extracted from brightfield images were analyzed using the WormSizer plugin for ImageJ.
Data of estimated adult body length and volume were initially assessed for normality using a D'Agostino & Pearson test. Based on this analysis a nonparametric Kruskal-Wallis Analysis of Variance (ANOVA) was performed followed by a Dunn-Šidák test for multiple comparisons (as implemented by Prism v7.0a, GraphPad Software). There was a significant difference between body length (H(10)=432.6, p<0.0001) amongst the groups measured.

[5] = 10 mM DEM, 24-hour exposure, 4-day old adult worms

Compound | cell death (propidium iodide), preceding organismal death [1] | cell death (animals with any dead cells) [1] | DEM toxicity (survival) [2] | glutathione depletion induced by DEM [3] | age-dependent decrease in glutathione [3] | length or volume ([4]; in vivo) | lethality [2, 5] | death of adult worms ([2]; DEM≥1 mM, 4-day old adult worms, dose- and time-dependent) | depletion of glutathione [3, 5] | body volume ([4]; Day 4) | body length, mean±SD ([4]; Day 8, control 1440±123 μm, p<0.001) [μm] | body length versus similarly aged controls ([4]; after 4 days and 8 days of intervention) | body volume over time ([4]; in vivo)
Clc1cccc(CNC2=Nc3ccccc3NC23CCNCC3)c1 [Lip-1, N-[(3-chlorophenyl)methyl]-spiro[piperidine-4,2′(1′H)-quinoxalin]-3′-amine] | significantly attenuated | completely suppressed | rescued | did not prevent the fall in glutathione | did not prevent the fall in glutathione | no effect on length or volume | – | – | – | – | – | – | –
CCOC(=O)/C=C\C(=O)OCC [DEM, Diethyl maleate] | – | – | – | – | – | – | ≈ 50% | induced death | ≈ 50% | – | – | – | –
O=C(N/N=C/c1ccccc1O)c1ccncc1 [SIH, Salicylaldehyde isonicotinoyl hydrazone] | significantly attenuated | completely suppressed | rescued | mitigated the glutathione depletion induced by DEM | prevented the age-dependent decrease in glutathione | – | – | – | – | greater volume than both control and Lip-1 treated worms | 1696±64 | significantly longer | increase in body volume between Days 1 and 4, but not thereafter
